57 compounds from patent US9273364B2 (Kyoto University, priority 2010, dated 2016) can be followed below.

Where a name gives a salt, the structure may show the parent alone. Read-outs that look alike come from different tables or passages of the source.

The series deals with alternative splicing of a specific gene (GFP/RFP reporter). The series can be described thus: Compound screen with GFP/RFP alternative splicing reporter. The class given is cell-based. An excerpt:
Strategy of a method for testing whether or not a compound to be tested affects an alternative splicing of a specific gene in a mammalian multicelluar organism is shown in FIG. 14.
The reporter proteins used for the method are GFP and FRP.

[1] abbreviates: cell count after compound at final conc., Ctrl number of cells 4303-5627.
The mark [2] stands for this setting: reporter ratio relative to control = 1, final conc. per compound (μM, 50 ng/mL).

`N[C@@H](Cc1ccc(N(CCCl)CCCl)cc1)C(=O)O` (racemic) [Melphalan] returned a Number of cells under setting [1] of 483.

In the case of `CC(C)Cn1cnc2c(N)nc3ccccc3c21` (racemic) [Imiquimod], the Number of cells (50 ng/mL) came to 1944.

Regarding `Nc1ncnc2c1ncn2[C@@H]1O[C@H](CO)[C@@H](O)[C@@H]1O` (racemic) [Vidarabine], where the note is “50 ng/mL”, the Number of cells stood at 1482.

In turn, `COc1cc([C@@H]2c3cc4c(cc3[C@@H](O[C@@H]3O[C@@H]5CO[C@@H](C)O[C@H]5[C@H](O)[C@H]3O)[C@H]3COC(=O)[C@H]23)OCO4)cc(OC)c1O` [Etoposide] yielded a Number of cells (50 ng/mL) of 055.

`CCOC(=O)C1=C(C)NC(C)=C(C(=O)OC)C1c1cccc(Cl)c1Cl` (centres unmarked) [Felodipine] displayed a Number of cells (50 ng/mL) of 116.

Consider `CCc1nn(CCCN2CCN(c3cccc(Cl)c3)CC2)c(=O)n1CCOc1ccccc1` (racemic) [Nefazodone], for which the Number of cells is 2966.

The compound `C[C@]12CCC(=O)C=C1CC[C@@H]1[C@@H]2[C@@H](O)C[C@@]2(C)[C@H]1CC[C@]2(O)C(=O)CO` (racemic) [Hydrocortisone] came in with a Number of cells of 3105.

Turning to `CCN(CC)CCOc1ccc(C(=C(Cl)c2ccccc2)c2ccccc2)cc1` (racemic) [Clomiphene citrate], the Number of cells (50 ng/mL) is 95.

In turn, `N=c1ccn2c(n1)O[C@H]1[C@H](O)[C@@H](CO)O[C@H]12` (racemic) [Cyclocytidine HCl] had a Number of cells (50 ng/mL) of 73.

Compound `Cc1cc2c(OCC(CNC(C)(C)C)OC(=O)c3ccccc3)cccc2[nH]1.O=C(O)CC(=O)O` (centres unmarked) [Bopindolol malonate] returned a Number of cells of 3625. Under setting [2], the “GFP/RFP (Ctrl = 1)” value worked out at 1.265.

`Cc1cn([C@H]2C[C@H](N=[N+]=[N-])[C@@H](CO)O2)c(=O)[nH]c1=O` (racemic) [3′-azido-3′-deoxythymidine] displayed a Number of cells of 2356.

Consider `CC(C)CN(C[C@@H](O)[C@H](Cc1ccccc1)NC(=O)O[C@H]1CCOC1)S(=O)(=O)c1ccc(N)cc1` (racemic) [Amprenavir], for which the Number of cells turned out to be 2564.

`Cl.O=C(O)c1cn(-c2ccc(F)cc2)c2cc(N3CCNCC3)c(F)cc2c1=O` [Satafloxacin HCl] returned a Number of cells of 3105. Also, the “GFP/RFP (Ctrl = 1)” value under setting [2] was found to be 1.341.

In the case of `CC(=O)O[C@@]12CO[C@@H]1C[C@H](O)[C@@]1(C)C(=O)[C@H](O)C3=C(C)[C@@H](OC(=O)[C@H](O)[C@@H](NC(=O)OC(C)(C)C)c4ccccc4)C[C@@](O)([C@@H](OC(=O)c4ccccc4)[C@H]21)C3(C)C` [Docetaxil], the Number of cells is listed as 1194. Besides, under setting [2], the “GFP/RFP (Ctrl = 1)” value was determined as 1.862.

On to `Cc1ccc(-c2cc(C(F)(F)F)nn2-c2ccc(S(N)(=O)=O)cc2)cc1` (racemic) [Celecoxib], for which the Number of cells was found to be 3060.

`CCCC(=O)OCC[N+](C)(C)C.[Cl-]` [Butyrylcholine Cl]: the “count per well with compound (column 9, head not shown; probably cell number; c10 = plate reference)” value is 4016 and the “reporter fluorescence ratio relative to control (last column of Table 4, head not shown; table sorted by this value)” value is recorded as 1.016.

Consider `N.N.O=C([O-])C1(C(=O)[O-])CCC1.[Pt+2]` [Carboplatin], for which the “GFP/RFP (Ctrl = 1)” value was 1.875. Further, the Number of cells under setting [1] is given as 1373.

On to `CO[C@H]1C[C@@H]2CC[C@@H](C)[C@@](O)(O2)C(=O)C(=O)N2CCCC[C@H]2C(=O)O[C@H]([C@H](C)C[C@@H]2CC[C@@H](O)[C@H](OC)C2)CC(=O)[C@H](C)/C=C(\C)[C@@H](O)[C@@H](OC)C(=O)[C@H](C)C[C@H](C)/C=C/C=C/C=C/1C` [Rapamycin], for which the Number of cells under setting [1] stood at 2046.

As for `Nc1nc(Cl)nc2c1ncn2[C@@H]1O[C@H](CO)[C@@H](O)[C@@H]1F` (racemic) [Clofarabine], the Number of cells (50 ng/mL) was found to be 19.

Compound `O=c1[nH]cc(F)c(=O)[nH]1` (racemic) [5-fluorouracil] returned a Number of cells (50 ng/mL) of 433.

Take Bleomycin sulfate: the “GFP/RFP (Ctrl = 1)” value is 1.477. This compound also came in with a Number of cells under setting [1] of 2702.

As to `N[C@@H]1C[C@H]1c1ccccc1` (racemic) [Tranylcypromine], the “ratio in column 11 (head not shown in this continuation table; table sorted by it in descending order; apparently GFP/RFP reporter ratio)” value worked out at 0.7492.

Compound `CCOC(=O)[C@H](CCc1ccccc1)N[C@@H](C)C(=O)N1Cc2ccccc2C[C@H]1C(=O)O` (racemic) [Quinapril HCl] had a Number of cells of 3149.

Turning to `Cc1c(Cl)cccc1Nc1ccccc1C(=O)O` (racemic) [Tolfenamic acid], the Number of cells worked out at 2697.

As to `O=C1CCC(N2C(=O)c3ccccc3C2=O)C(=O)N1` (centres unmarked) [Thaldomide], the Number of cells was determined as 2622. For the same compound, the “GFP/RFP (Ctrl = 1)” value under setting [2] is 1.271.

Apomorphine r (−): the “GFP/RFP (Ctrl = 1)” value worked out at 1.357. Under setting [1], this compound came in with a Number of cells of 3372.

In turn, `COc1ccc2c(c1)[nH]c1c(C)nccc12` [Harmine] gave a Number of cells under setting [1] of 537.

`C[C@@H]1[C@H](O)[C@@H](C)/C=C/C=C/CC/C=C/C=C/C=C/C=C/C(O[C@H]2O[C@H](C)[C@@H](O)[C@H](N)[C@@H]2O)CC2O[C@](O)(CC(O)C(O)CCC(O)CC(O)CC(O)CC(=O)O[C@H]1C)CC(O)C2C(=O)O` (some centres unmarked) [Nystatin]: the “GFP/RFP (Ctrl = 1)” value worked out at 1.253. This compound registered a Number of cells under setting [1] of 3293.

`CC/C(=C(/CC)c1ccc(O)cc1)c1ccc(O)cc1` (racemic) [Diethylstilbestrol]: the Number of cells (50 ng/mL) is 542.

On to `CC(C)C[C@H](NC(=O)[C@H](Cc1ccccc1)NC(=O)c1cnccn1)B(O)O` (racemic) [Bortezomib], for which the Number of cells (50 ng/mL) is reported as 74.

With `COc1cc(NS(=O)(=O)c2ccc(N)cc2)nc(OC)n1` (racemic) [Sulfadimethoxine], the Number of cells (50 ng/mL) is 3092.

In the case of `CC(N)C(O)c1ccccc1` (racemic) [Phenylpropanolamine], the Number of cells under setting [1] amounted to 2551.

Turning to `O=C(NC(Cc1cc(=O)[nH]c2ccccc12)C(=O)O)c1ccc(Cl)cc1` (racemic) [Rebamipide], the Number of cells (50 ng/mL) is 2922.

For `CC[C@@]1(O)C(=O)OCc2c1cc1n(c2=O)Cc2cc3cc(O)ccc3nc2-1` [10-hydroxycamptothecin], the “GFP/RFP (Ctrl = 1)” value turned out to be 3.114. Moreover, the Number of cells under setting [1] is 541.

In turn, `Cc1nc(C)c(Cl)c(O)c1Cl` (racemic) [Clopidol] returned a Number of cells under setting [1] of 3230.

`CN1C(C(=O)Nc2ccccn2)=C(O)c2sccc2S1(=O)=O` (racemic) [Tenoxicam] displayed a Number of cells (50 ng/mL) of 2916.

In turn, `N=C(N)c1ccc(OCCCCCOc2ccc(C(=N)N)cc2)cc1` [Pentamidine] returned a Number of cells (50 ng/mL) of 2694.

As to `CC[C@@]1(O)C(=O)OCc2c1cc1n(c2=O)Cc2cc3c(CN(C)C)c(O)ccc3nc2-1` (racemic) [Topotecan], the Number of cells (50 ng/mL) was determined as 259.

Turning to `C[C@H]1C[C@@H]2[C@H]([C@@H](O)C[C@@]3(C)[C@H]2CC[C@]3(O)C(=O)CO)[C@@]2(C)C=CC(=O)C=C12` (racemic) [Methylprednisolone], the Number of cells (50 ng/mL) is recorded as 3084.

For the setting “50 ng/mL”, `CC(=O)[C@]1(O)Cc2c(O)c3c(c(O)c2[C@@H](O[C@H]2C[C@H](N)[C@H](O)[C@H](C)O2)C1)C(=O)c1ccccc1C3=O` (racemic) [Idarubicin] came in with a Number of cells of 34.

Salbutamol sulfate displayed a Number of cells of 4053. In addition, the “GFP/RFP (Ctrl = 1)” value under setting [2] is reported as 1.295.

`COC(=O)C1=C(C)NC(C)=C(C(=O)OC)C1c1ccccc1[N+](=O)[O-]` [Nifedipine] came in with a Number of cells (50 ng/mL) of 156.

The compound `CCCCC(C)(O)C/C=C/[C@H]1[C@H](O)CC(=O)[C@@H]1CCCCCCC(=O)OC` (mixture of isomers) [Misoprostol] registered a Number of cells (50 ng/mL) of 3052.

Compound `C[N+](C)(C)CCOC(=O)CCC(=O)OCC[N+](C)(C)C` (racemic) [Succinylcholine] had a Number of cells under setting [1] of 2727.

For `C[C@H]1[C@H](OC(=O)CCC(=O)O)O[C@@H]2O[C@@]3(C)CC[C@H]4[C@H](C)CC[C@@H]1[C@@]24OO3` [Artesunate], where the note is “50 ng/mL”, the Number of cells was determined as 246.

The compound `COc1cccc2c1C(=O)c1c(O)c3c(c(O)c1C2=O)C[C@@](O)(C(=O)CO)C[C@@H]3O[C@H]1C[C@H](N)[C@H](O)[C@H](C)O1` [Doxorubicin HCl] had a Number of cells (50 ng/mL) of 18.

The compound `COc1cc(CNC(=O)CCCC/C=C/C(C)C)ccc1O` [Capsaicin] displayed a Number of cells under setting [1] of 1918.

`CC(C)(C)NCC(O)c1ccccc1Cl` (racemic) [Tulobuterol] returned a Number of cells (50 ng/mL) of 3489.

In turn, `Clc1ccc(COC(Cn2ccnc2)c2ccc(Cl)cc2Cl)c(Cl)c1` (racemic) [Miconazole] gave a Number of cells (50 ng/mL) of 808.

Compound `CCC(C)n1ncn(-c2ccc(N3CCN(c4ccc(OCC5COC(Cn6cncn6)(c6ccc(Cl)cc6Cl)O5)cc4)CC3)cc2)c1=O` (racemic) [Itraconazole] showed a Number of cells (50 ng/mL) of 344.

`COC(=O)Nc1nc2ccc([S+]([O-])c3ccccc3)cc2[nH]1` (racemic) [Oxfendazole] registered a Number of cells under setting [1] of 1712.

`CCN(CC)CCCC(C)Nc1c2ccc(Cl)cc2nc2ccc(OC)cc12.Cl.Cl.O.O` (centres unmarked) [Quinacrine 2HCl dihydrate] gave a Number of cells of 5. Further, the “GFP/RFP (Ctrl = 1)” value under setting [2] was found to be 3.153.

In turn, `Cl.Cl.O=C1c2c(O)ccc(O)c2C(=O)c2c(NCCNCCO)ccc(NCCNCCO)c21` [Mitoxantrone 2HCl] yielded a Number of cells of 31. The “GFP/RFP (Ctrl = 1)” value under setting [2] was 2.651.

Under “50 ng/mL”, `CC(C)C(=O)c1c(C(C)C)nn2ccccc12` (racemic) [Ibudilast] returned a Number of cells of 3018.

As to `CC1(C)S[C@@H]2[C@H](NC(=O)COc3ccccc3)C(=O)N2[C@H]1C(=O)[O-].[K+]` [Pencillin v potassium], the “reporter fluorescence ratio, GFP/RFP (c11; column head not printed in these continuation tables, table sorted descending by it)” value is given as 1.134.

In turn, `NC[C@H](O)c1ccc(O)c(O)c1.O=C(O)C(O)C(O)C(=O)O` [Norepinephrine-(+)-tartrate l (−)] returned a Number of cells of 4210. Further, under setting [2], the “GFP/RFP (Ctrl = 1)” value turned out to be 1.594.

Regarding `CC1(C)C[C@@H]1C(=O)N/C(=C\CCCCSC[C@H](N)C(=O)O)C(=O)O` [Cilastatin], the “cell count per well (c9; column head not printed in these continuation tables, meaning inferred)” value is 2885.
